Results from the NIST ThermoML archive (doi:10.1016/j.fluid.2006.07.015).
± gives the expanded uncertainty stated by the source.

What was measured:
[1] = Crystal; visual observation
[2] = activity coefficient (dimensionless); of the first substance listed, at infinite dilution; xn = mol fraction of the nth substance listed; settings: 101 kPa, Liquid, Chromatography, x1 = 0

Normal melting temperature [1] | activity coefficient ([2]; 373.15 K) | activity coefficient ([2]; 388.15 K) | activity coefficient ([2]; 403.15 K) | activity coefficient ([2]; 418.15 K) | activity coefficient ([2]; 433.15 K) | SMILES
72 ± 6 °C |  |  |  |  |  | CCCCCCCCCCCCCCCCCCC(CCCCCCCCCCCCCCCCCC)CCCCC(CCCCCCCCCCCCCCCCCC)CCCCCCCCCCCCCCCCCC [19,24-dioctadecyldotetracontane]
 | 0.392 ± 0.034 | 0.394 ± 0.034 | 0.395 ± 0.034 | 0.396 ± 0.034 | 0.398 ± 0.034 | C=CCCCCCCC [1-nonene] + CCCCCCCCCCCCCCCCCCC(CCCCCCCCCCCCCCCCCC)CCCCC(CCCCCCCCCCCCCCCCCC)CCCCCCCCCCCCCCCCCC
 | 0.418 ± 0.034 | 0.42 ± 0.034 | 0.421 ± 0.034 | 0.423 ± 0.034 | 0.425 ± 0.034 | CCCCCCCCCC [decane] + CCCCCCCCCCCCCCCCCCC(CCCCCCCCCCCCCCCCCC)CCCCC(CCCCCCCCCCCCCCCCCC)CCCCCCCCCCCCCCCCCC
 | 0.344 ± 0.035 | 0.346 ± 0.035 | 0.348 ± 0.035 | 0.351 ± 0.035 | 0.355 ± 0.035 | CCCCCC [hexane] + CCCCCCCCCCCCCCCCCCC(CCCCCCCCCCCCCCCCCC)CCCCC(CCCCCCCCCCCCCCCCCC)CCCCCCCCCCCCCCCCCC
 | 0.314 ± 0.035 | 0.315 ± 0.035 | 0.313 ± 0.035 | 0.304 ± 0.035 | 0.304 ± 0.035 | CCc1ccccc1 [ethylbenzene] + CCCCCCCCCCCCCCCCCCC(CCCCCCCCCCCCCCCCCC)CCCCC(CCCCCCCCCCCCCCCCCC)CCCCCCCCCCCCCCCCCC
 | 0.267 ± 0.036 | 0.273 ± 0.036 | 0.273 ± 0.036 | 0.272 ± 0.036 | 0.275 ± 0.036 | CC1CCCCC1 [methylcyclohexane] + CCCCCCCCCCCCCCCCCCC(CCCCCCCCCCCCCCCCCC)CCCCC(CCCCCCCCCCCCCCCCCC)CCCCCCCCCCCCCCCCCC
 | 0.258 ± 0.036 | 0.264 ± 0.036 | 0.265 ± 0.036 | 0.262 ± 0.036 | 0.264 ± 0.036 | C1CCCCCCC1 [cyclooctane] + CCCCCCCCCCCCCCCCCCC(CCCCCCCCCCCCCCCCCC)CCCCC(CCCCCCCCCCCCCCCCCC)CCCCCCCCCCCCCCCCCC
 | 0.378 ± 0.034 | 0.377 ± 0.034 | 0.377 ± 0.034 | 0.378 ± 0.034 | 0.38 ± 0.034 | CC#CCCC [2-hexyne] + CCCCCCCCCCCCCCCCCCC(CCCCCCCCCCCCCCCCCC)CCCCC(CCCCCCCCCCCCCCCCCC)CCCCCCCCCCCCCCCCCC
 | 0.479 ± 0.033 | 0.479 ± 0.033 | 0.479 ± 0.033 | 0.48 ± 0.033 | 0.481 ± 0.033 | CCCCCCCCCCCCC [tridecane] + CCCCCCCCCCCCCCCCCCC(CCCCCCCCCCCCCCCCCC)CCCCC(CCCCCCCCCCCCCCCCCC)CCCCCCCCCCCCCCCCCC
 | 0.25 ± 0.036 | 0.251 ± 0.036 | 0.246 ± 0.036 | 0.245 ± 0.036 | 0.247 ± 0.036 | C1CCCCC1 [cyclohexane] + CCCCCCCCCCCCCCCCCCC(CCCCCCCCCCCCCCCCCC)CCCCC(CCCCCCCCCCCCCCCCCC)CCCCCCCCCCCCCCCCCC
 | 0.378 ± 0.034 | 0.385 ± 0.034 | 0.381 ± 0.034 | 0.38 ± 0.034 | 0.376 ± 0.034 | CCCCCc1ccccc1 [pentylbenzene] + CCCCCCCCCCCCCCCCCCC(CCCCCCCCCCCCCCCCCC)CCCCC(CCCCCCCCCCCCCCCCCC)CCCCCCCCCCCCCCCCCC
 | 0.336 ± 0.035 | 0.338 ± 0.035 | 0.341 ± 0.035 | 0.345 ± 0.035 | 0.349 ± 0.035 | CCCCC [pentane] + CCCCCCCCCCCCCCCCCCC(CCCCCCCCCCCCCCCCCC)CCCCC(CCCCCCCCCCCCCCCCCC)CCCCCCCCCCCCCCCCCC
 | 0.267 ± 0.036 | 0.278 ± 0.036 | 0.276 ± 0.036 | 0.273 ± 0.036 | 0.277 ± 0.036 | C1CC[C@@H]2CCC[C@H]2C1 [trans-bicyclo[4.3.0]nonane] + CCCCCCCCCCCCCCCCCCC(CCCCCCCCCCCCCCCCCC)CCCCC(CCCCCCCCCCCCCCCCCC)CCCCCCCCCCCCCCCCCC
 | 0.404 ± 0.034 | 0.406 ± 0.034 | 0.406 ± 0.034 | 0.417 ± 0.034 | 0.419 ± 0.034 | CCC#CCC [3-hexyne] + CCCCCCCCCCCCCCCCCCC(CCCCCCCCCCCCCCCCCC)CCCCC(CCCCCCCCCCCCCCCCCC)CCCCCCCCCCCCCCCCCC
 | 0.28 ± 0.036 | 0.287 ± 0.036 | 0.29 ± 0.036 | 0.288 ± 0.036 | 0.295 ± 0.036 | C[C@@H]1CCCC[C@H]1C [trans-1,2-dimethylcyclohexane] + CCCCCCCCCCCCCCCCCCC(CCCCCCCCCCCCCCCCCC)CCCCC(CCCCCCCCCCCCCCCCCC)CCCCCCCCCCCCCCCCCC
 | 0.38 ± 0.034 | 0.381 ± 0.034 | 0.382 ± 0.034 | 0.384 ± 0.034 | 0.386 ± 0.034 | CCCCCCCC [octane] + CCCCCCCCCCCCCCCCCCC(CCCCCCCCCCCCCCCCCC)CCCCC(CCCCCCCCCCCCCCCCCC)CCCCCCCCCCCCCCCCCC
 | 0.269 ± 0.036 | 0.266 ± 0.036 | 0.263 ± 0.036 | 0.26 ± 0.036 | 0.258 ± 0.036 | c1ccccc1 [benzene] + CCCCCCCCCCCCCCCCCCC(CCCCCCCCCCCCCCCCCC)CCCCC(CCCCCCCCCCCCCCCCCC)CCCCCCCCCCCCCCCCCC
 | 0.242 ± 0.036 | 0.244 ± 0.036 | 0.242 ± 0.036 | 0.238 ± 0.036 | 0.238 ± 0.036 | C1=CCC=CC1 [1,4-cyclohexadiene] + CCCCCCCCCCCCCCCCCCC(CCCCCCCCCCCCCCCCCC)CCCCC(CCCCCCCCCCCCCCCCCC)CCCCCCCCCCCCCCCCCC
 | 0.397 ± 0.034 | 0.405 ± 0.034 | 0.401 ± 0.034 | 0.404 ± 0.034 | 0.401 ± 0.034 | CCCCCCc1ccccc1 [hexylbenzene] + CCCCCCCCCCCCCCCCCCC(CCCCCCCCCCCCCCCCCC)CCCCC(CCCCCCCCCCCCCCCCCC)CCCCCCCCCCCCCCCCCC
 | 0.287 ± 0.036 | 0.294 ± 0.036 | 0.296 ± 0.036 | 0.296 ± 0.036 | 0.3 ± 0.036 | C[C@H]1CC[C@@H](C)CC1 [cis-1,4-dimethylcyclohexane] + CCCCCCCCCCCCCCCCCCC(CCCCCCCCCCCCCCCCCC)CCCCC(CCCCCCCCCCCCCCCCCC)CCCCCCCCCCCCCCCCCC
 | 0.252 ± 0.036 | 0.257 ± 0.036 | 0.256 ± 0.036 | 0.253 ± 0.036 | 0.255 ± 0.036 | C1CCCCCC1 [cycloheptane] + CCCCCCCCCCCCCCCCCCC(CCCCCCCCCCCCCCCCCC)CCCCC(CCCCCCCCCCCCCCCCCC)CCCCCCCCCCCCCCCCCC
 | 0.411 ± 0.034 | 0.407 ± 0.034 | 0.401 ± 0.034 | 0.399 ± 0.034 | 0.398 ± 0.034 | C#CCCCCC [1-heptyne] + CCCCCCCCCCCCCCCCCCC(CCCCCCCCCCCCCCCCCC)CCCCC(CCCCCCCCCCCCCCCCCC)CCCCCCCCCCCCCCCCCC
 | 0.39 ± 0.034 | 0.378 ± 0.034 | 0.37 ± 0.034 | 0.364 ± 0.035 | 0.36 ± 0.035 | C#CCCCC [1-hexyne] + CCCCCCCCCCCCCCCCCCC(CCCCCCCCCCCCCCCCCC)CCCCC(CCCCCCCCCCCCCCCCCC)CCCCCCCCCCCCCCCCCC
 | 0.374 ± 0.034 | 0.374 ± 0.034 | 0.374 ± 0.034 | 0.375 ± 0.034 | 0.377 ± 0.034 | C=CCCCCCC [oct-1-ene] + CCCCCCCCCCCCCCCCCCC(CCCCCCCCCCCCCCCCCC)CCCCC(CCCCCCCCCCCCCCCCCC)CCCCCCCCCCCCCCCCCC
 | 0.391 ± 0.034 | 0.392 ± 0.034 | 0.394 ± 0.034 | 0.396 ± 0.034 | 0.4 ± 0.034 | CC(C)CC(C)C [2,4-dimethylpentane] + CCCCCCCCCCCCCCCCCCC(CCCCCCCCCCCCCCCCCC)CCCCC(CCCCCCCCCCCCCCCCCC)CCCCCCCCCCCCCCCCCC
 | 0.288 ± 0.036 | 0.295 ± 0.036 | 0.297 ± 0.036 | 0.298 ± 0.036 | 0.299 ± 0.036 | C[C@H]1CC[C@H](C)CC1 [trans-1,4-dimethylcyclohexane] + CCCCCCCCCCCCCCCCCCC(CCCCCCCCCCCCCCCCCC)CCCCC(CCCCCCCCCCCCCCCCCC)CCCCCCCCCCCCCCCCCC
 | 0.239 ± 0.036 | 0.244 ± 0.036 | 0.243 ± 0.036 | 0.241 ± 0.036 | 0.243 ± 0.036 | C1=CCCCC1 [cyclohexene] + CCCCCCCCCCCCCCCCCCC(CCCCCCCCCCCCCCCCCC)CCCCC(CCCCCCCCCCCCCCCCCC)CCCCCCCCCCCCCCCCCC
 | 0.384 ± 0.034 | 0.397 ± 0.034 | 0.4 ± 0.034 | 0.392 ± 0.034 | 0.386 ± 0.034 | c1ccc2ccccc2c1 [naphthalene] + CCCCCCCCCCCCCCCCCCC(CCCCCCCCCCCCCCCCCC)CCCCC(CCCCCCCCCCCCCCCCCC)CCCCCCCCCCCCCCCCCC

SMILES | Normal melting temperature [1] | activity coefficient ([2]; 373.15 K) | activity coefficient ([2]; 388.15 K) | activity coefficient ([2]; 403.15 K) | activity coefficient ([2]; 418.15 K) | activity coefficient ([2]; 433.15 K)
CCCCc1ccccc1 [butylbenzene] + CCCCCCCCCCCCCCCCCCC(CCCCCCCCCCCCCCCCCC)CCCCC(CCCCCCCCCCCCCCCCCC)CCCCCCCCCCCCCCCCCC |  | 0.357 ± 0.035 | 0.362 ± 0.035 | 0.359 ± 0.035 | 0.358 ± 0.035 | 0.354 ± 0.035
